In ChEMBL document CHEMBL4725376, “Identification of the first noncompetitive SARM1 inhibitors” (Bioorg Med Chem, 2020):
Counter-ions that a name gives are not always drawn.

Legend:
Type in all cases: subcellular
[1] = target: T1, NAD(+) hydrolase SARM1 (Homo sapiens) (UniProt Q6SZW1); assay: Inhibition of recombinant human SARM1 TIR domain (561 to 724 residues) expressed in Escherichia coli C43 (DE3) cells lysates using ENAD as substrate at 25 uM preincubated for 20 mins followed by ENAD addition and measured after 1 hr relative to control
T1 sequence (whole entry): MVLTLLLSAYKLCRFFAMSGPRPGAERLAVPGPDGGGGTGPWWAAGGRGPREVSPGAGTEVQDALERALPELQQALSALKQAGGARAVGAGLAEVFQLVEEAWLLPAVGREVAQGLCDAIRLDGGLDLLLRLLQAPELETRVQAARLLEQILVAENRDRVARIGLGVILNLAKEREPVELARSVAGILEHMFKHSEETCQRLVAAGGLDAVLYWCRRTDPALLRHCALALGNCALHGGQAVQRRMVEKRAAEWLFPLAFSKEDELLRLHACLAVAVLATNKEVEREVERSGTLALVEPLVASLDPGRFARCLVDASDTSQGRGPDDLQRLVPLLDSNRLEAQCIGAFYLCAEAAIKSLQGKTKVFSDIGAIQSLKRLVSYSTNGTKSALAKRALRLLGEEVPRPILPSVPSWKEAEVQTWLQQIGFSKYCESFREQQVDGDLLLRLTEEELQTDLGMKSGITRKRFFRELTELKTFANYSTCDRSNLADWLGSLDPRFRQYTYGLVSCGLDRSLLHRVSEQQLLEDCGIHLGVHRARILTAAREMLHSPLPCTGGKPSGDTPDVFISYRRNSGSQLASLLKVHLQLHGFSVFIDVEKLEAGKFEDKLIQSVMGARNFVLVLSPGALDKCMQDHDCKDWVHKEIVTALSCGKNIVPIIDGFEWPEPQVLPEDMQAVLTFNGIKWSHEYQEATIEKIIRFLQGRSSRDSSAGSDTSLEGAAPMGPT

NAD(+) hydrolase SARM1 [2] = target: T2, NAD(+) hydrolase SARM1 (Homo sapiens, UniProt Q6SZW1); assay: Competitive inhibition of recombinant human SARM1 TIR domain (561 to 724 residues) expressed in Escherichia coli C43 (DE3) cells lysates assessed as EADPR formation using ENAD as substrate preincubated for 20 mins followed by ENAD addition and measured at 15 sec interval for 1 hr
T2 sequence (Q6SZW1 whole entry): T1 sequence (whole entry)

NAD(+) hydrolase SARM1 [3] = target: T2, NAD(+) hydrolase SARM1; assay: Inhibition of recombinant human SARM1 TIR domain (561 to 724 residues) expressed in Escherichia coli C43 (DE3) cells lysates using ENAD as substrate preincubated for 20 mins followed by ENAD addition and measured at 15 sec interval for 15 mins
NAD(+) hydrolase SARM1 [4] = target: T2, NAD(+) hydrolase SARM1; assay: Noncompetitive inhibition of recombinant human SARM1 TIR domain (561 to 724 residues) expressed in Escherichia coli C43 (DE3) cells lysates assessed as EADPR formation using ENAD as substrate preincubated for 20 mins followed by ENAD addition and measured at 15 sec interval for 1 hr

| SMILES | inhibition [1] [%] | Ki (NAD(+) hydrolase SARM1 [2]) [µM] | IC50 (NAD(+) hydrolase SARM1 [3]) [µM] | Ki (NAD(+) hydrolase SARM1 [4]) [µM] |
| --- | --- | --- | --- | --- |
| C[C@H]1c2cccc(O)c2C(=O)C2=C(O)[C@]3(O)C(=O)C(C(N)=O)=C(O)[C@@H](N(C)C)[C@@H]3[C@@H](O)[C@@H]21 | 26 |  |  |  |
| Nc1ccc(/N=N/c2ccccc2)c(N)n1 [PHENAZOPYRIDINE HYDROCHLORIDE] | 44 | 70 |  |  |
| NC(=O)N/N=C/c1ccc([N+](=O)[O-])o1 [NITROFURAZONE] | 27 |  | 90 | 120 |
